Data set [1] in a line: In vitro dissolution test, paddle apparatus, pH 5.0 phosphate buffer. Type of data set: physicochemical. The settings on record: pH 5.0, 100 rpm, 900 ml. From the text: The dissolution test is usually the most appropriate analytical tool to assess the quality of the oral formulations and especially of sustained release oral formulations.
The conditions of data set [2]: cited from earlier work.
For data set [3] the following is noted: cited from earlier work. This is another data set of the same source.

Like-named read-outs stand apart in the source and are kept apart here.

These results are taken from patent publication US20040048814A1, “Sustained release composition contraining clarithromycin” (priority 2000, published 2004).

Turning to `CC[C@H]1OC(=O)[C@H](C)[C@@H](O[C@H]2C[C@@](C)(OC)[C@@H](O)[C@H](C)O2)[C@H](C)[C@@H](O[C@@H]2O[C@H](C)C[C@H](N(C)C)[C@H]2O)[C@](C)(OC)C[C@@H](C)C(=O)[C@H](C)[C@@H](O)[C@]1(C)O` [clarithromycin, Clarithromycin], the “% of dissolved clarithromycin” value is given as “about 40%” in data set [1] (after 5 minutes, amount of coating 12% of the weight of the core); “about 20%” in data set [1] (after 5 minutes, amount of coating 14% of the weight of the core); “about 80%” in data set [1] (after about 5 minutes, amount of coating 10% of the weight of the core). Moreover, in data set [2] (food intake immediately before administration), the “increase of bioavailability by food intake (mean)” value is listed as 25%. Also, the “time to achieve peak blood concentrations” value in data set [2] (oral administration) is on record as “about 2 hours”. Besides, in data set [2] (oral dose of 250 mg), the “availability after an oral dose” value is reported as roughly 55%. Further, the water solubility result in data set [3] (pH below 5) is “good and quite constant”. The solubility entry in data set [3] (pH greater than 5) is “decreases dramatically”; in data set [3] (pH=8), “quasi nil”.
